Measured values as given in patent US20130315982A1, “LIPOSOMAL DRUG COMPOSITION CONTAINING A POLYMERIC GUANIDINE DERIVATIVE” (MINDINVEST HOLDINGS LTD., priority 2010, published 2013).

Tested on: tumor cells
Assay: Resistance study with 30 passages
Type: cell-based
From the text: It has been shown that the problem can be solved by encapsulation of the polymeric guanidine derivate in PEGylated liposomes, which ensures that the drug substance reaches its target in higher concentrations, e.g. the malignant tumor cells. […] The commonly known cytostatics induce such cellular resistance mechanisms requiring higher, toxic doses, which cause severe side effects.

Substance: poly-[2-(2-ethoxyethoxyethyl)guanidinium hydrochloride] [API]
- reduction of activity (induction of resistance): no reduction of activity
